Results on 8 compounds are retold here after patent US6683157B2, “Variant human α7 acetylcholine receptor subunit, and methods of production and use thereof” (priority 1996, dated 2004).

In test [1] the target is T1, human α7 wild type nAChR (Homo sapiens, UniProt P36544).
T1 construct: This created a new cDNA encoding a full length α7 subunit; expressed in transfected cells; host or cells: Xenopus laevis oocytes injected with receptor RNA or DNA
The experiment in a line: Agonist concentration-response, two-electrode voltage-clamp in Xenopus laevis oocytes. Particulars: for Hill coefficient: Hill equation fit. It is filed as cell-based. (In two-electrode clamp one electrode senses voltage and the other passes current.)

Test [2] deals with T2, human α7V274T nAChR (Homo sapiens, UniProt P36544, V274T).
T2 construct: This created a new cDNA encoding a full length α7 subunit; expressed in transfected cells
The description is as above. It is filed as cell-based.

Test [3] deals with chick α7V251T nAChR. The note with it: cited from earlier work.
The target in test [4] is T1, human α7 wild type nAChR. Put plainly: Inhibition of the response to ACh in Xenopus oocytes. It is filed as cell-based. Particulars: ligand μM: DHβE 10, d-TC 1, MLA 0.01, MEC 10, ATROP 2; for % Inhibition, % of 200 μM ACh: inhibition of response to 200 μM ACh; for % Inhibition, % of 10 mM ACh: inhibition of response to 10 mM ACh.
The target in test [5] is T1, human α7 wild type nAChR. The experiment in a line: nAChR antagonists applied alone as agonists, current response in Xenopus oocytes. In kind it is cell-based. The note with it: ligand μM: DHβE 10, d-TC 1, MLA 0.01, MEC 10, ATROP 2.
In test [6] the target is T2, human α7V274T nAChR. The experiment in a line: Inhibition of the response to ACh in Xenopus oocytes. In kind it is cell-based. Particulars: for % Inhibition, 1 μM ACh: inhibition of response to 1 μM ACh; for % Inhibition, 1 μM ACh / % Inhibition, 10 μM ACh: ligand μM: DHβE 10, d-TC 1, MLA 0.01, MEC 10, ATROP 2; for % Inhibition, 10 μM ACh: inhibition of response to 10 μM ACh; for inhibition of ACh response: MEC 10 μM against 1 μM ACh in three of the five oocytes inhibited by atropine.

Test [7] addresses T2, human α7V274T nAChR. The experiment in a line: nAChR antagonists applied alone as agonists, current response in Xenopus oocytes. In kind it is cell-based. The note with it: for % Activation, 10 μM ACh: compared to activation by 10 μM ACh, ligand μM: DHβE 10, d-TC 1, MLA 0.01, MEC 10, ATROP 2, mean ± s.e.m. (n).
Test [8] concerns the target chick α7V251T nAChR (Gallus gallus, UniProt P22770, V274T). The note with it: 10 μM DHβE; cited from earlier work.
For another test, the target named is human α7 nAChR (Homo sapiens, UniProt P36544). Particulars: cited from earlier work.
The next test has as its target chick α7 nAChR (Gallus gallus, UniProt P22770). The note with it: cited from earlier work.
The next test concerns the target chick α7L247T nAChR (Gallus gallus, UniProt P22770, L270T). The note with it: cited from earlier work.

Entries after “also recorded” stand apart in the source; their conditions may differ. Structures can show the parent of a compound that is named as a salt. Where two headings read alike, the source gives them in different places.

For the compound `CN1CCCC1c1cccnc1` (single isomer, unassigned; (-)) [(−)-nicotine], the Hill coefficient worked out at 1.2±0.2 at human α7 wild type nAChR [1] and 1.3±0.2 on human α7V274T nAChR [2] (Hill equation fit).

Consider `Cc1ncccc1OC[C@@H]1CCCN1` [ABT-089], for which the “agonist type” value on human α7 wild type nAChR [1] is reported as “partial agonists”. The same compound showed an EC50 on human α7V274T nAChR [2] of 28 ± 3 µM. Besides, the efficacy on human α7V274T nAChR [2] (responses normalized to the response to ACh) came to 40±1%.

In the case of `CC(=O)OCC[N+](C)(C)C` [ACh, Acetylocholine chloride], the Hill coefficient is listed as 0.94±0.09 at human α7 wild type nAChR [1] and 1.8±0.2 at human α7V274T nAChR [2] (Hill equation fit). Also, the “increase in ACh potency versus chick α7 wild type” value in the test with chick α7V251T nAChR [3] was 180 fold.

Take `Br.CO[C@H]1CC=C2CCN3CCC4=C(CC(=O)OC4)[C@]23C1` [DHβE, Dihydro-β-erythroidine hydrobromide]: on human α7 wild type nAChR [4], the “% Inhibition, % of 200 μM ACh” value was 41 ± 10 (4) % and the “% Inhibition, % of 10 mM ACh” value is 23 ± 2 (4) %. Besides, the “% Activation, % of 10 mM ACh” value on human α7 wild type nAChR [5] is −0.2 ± 0.1 (5) %. Further, at human α7V274T nAChR [6], the “% Inhibition, 1 μM ACh” value is 69 ± 5 (4) % and the “% Inhibition, 10 μM ACh” value is 52 ± 6 (4) %. Moreover, the “% Activation, 10 μM ACh” value on human α7V274T nAChR [7] was 4 ± 1 (4) %. At chick α7V251T nAChR [8], the “response as % of the ACh response” value is listed as 66%.

As for `C[N+]1(C)CCN(c2ccccc2)CC1` [DMPP, 1,1-dimethyl-4-phenylpiperazinium], the “agonist type” value on human α7 nAChR is “highly efficacious agonist”; on chick α7 nAChR, “very weak partial agonist”.

Regarding `COc1ccc(/C=C2\CCCN=C2c2cccnc2)c(OC)c1` [GTS-21], the results for the “agonist type” value at human α7 wild type nAChR [1] and at human α7V274T nAChR [2] were “partial agonists” and “full agonist”, respectively. Besides, the Hill coefficient on human α7V274T nAChR [2] (Hill equation fit) amounted to 1.5±0.1. This compound also returned an EC50 on human α7V274T nAChR [2] (peak amplitude normalized to ACh response, Hill equation fit, holding potential −60 mV) of 4.3 ± 0.3 µM.

`CNC1(C)C2CCC(C2)C1(C)C` (centres unmarked) [MEC, mecamylamine hydrochloride]: on human α7 wild type nAChR [4], the “% Inhibition, % of 200 μM ACh” value is given as 82 ± 1 (3) % and the “% Inhibition, % of 10 mM ACh” value is on record as 85 ± 3 (3) %. Moreover, at human α7 wild type nAChR [5], the “% Activation, % of 10 mM ACh” value was −0.3 ± 0.2 (3) %. At human α7V274T nAChR [6], the “inhibition of ACh response” value is listed as “completely blocked”; the “% Inhibition, 1 μM ACh” value is 101 ± 1 (4) %; the “% Inhibition, 10 μM ACh” value was 53 ± 2 (4) %. Also, the “% Activation, 10 μM ACh” value on human α7V274T nAChR [7] is reported as −1.9 ± 0.2 (4) %.

In the case of `COc1cc2c3cc1Oc1cc(ccc1O)C[C@@H]1c4c(cc(OC)c(O)c4Oc4ccc(cc4)C[C@@H]3N(C)CC2)CC[N+]1(C)C.Cl.O.O.O.O.O.[Cl-]` [d-TC, d-tubocurarine chloride], at human α7 wild type nAChR [4], the “% Inhibition, % of 200 μM ACh” value is 28 ± 2 (4) % and the “% Inhibition, % of 10 mM ACh” value is listed as 25 ± 3 (4) %. Further, the “% Activation, % of 10 mM ACh” value on human α7 wild type nAChR [5] is given as −0.1 ± 0.1 (5) %. On human α7V274T nAChR [6], the “inhibition of ACh response” value is given as “potent antagonist”; the “% Inhibition, 1 μM ACh” value is reported as 99 ± 1 (4) %; the “% Inhibition, 10 μM ACh” value is 97 ± 3 (3) %. Also, the “outward current amplitude, % of the maximal inward current response to ACh” value on human α7V274T nAChR [7] (MLA 10 nM, MEC 10 μM, d-TC 1 μM (d-TC in two of four oocytes)) was 3-5%. At human α7V274T nAChR [7], the “% Activation, 10 μM ACh” value is −2 ± 1 (4) %. In addition, on human α7V274T nAChR [7] (d-TC 1 μM, atropine 2 μM), the “current response to ligand alone” value is listed as “did not elicit agonist-like inward currents; also recorded: did not activate inward currents”. On chick α7L247T nAChR, the “activation of inward current” value is given as “full response”.

The term Hill coefficient denotes a measure of the steepness of the concentration-response curve. A word on the EC50: it is the concentration needed to bring the measured effect to its halfway point. A lower EC50 goes with higher potency in that assay.
